# Paper PMC10965189, “Phytochemical investigation on the aerial parts of Veratrum versicolor f. viride Nakai and their biological activities” (Turkish Journal of Chemistry, 2023)
# Like-named read-outs stand apart in the source and are kept apart here.
# What was measured:
# [1] = test system: B16F10 mouse melanoma cells; assay: Measurement of relative melanin contents in α-MSH-stimulated cells; format: cell-based; conditions: for activity at 25 µM / activity at 50 µM / activity at 100 µM / inhibition at 100 µM: Mus musculus, B16-F10; for activity at 25 µM / activity at 50 µM / activity at 100 µM: 100 nM α-MSH, 72 h; for activity at 100 µM / effect on melanin content compared to arbutin: 100 μM; for effect on melanin content compared to arbutin: arbutin 400 μM
# Experimental: B16F10 mouse melanoma cells were cultured in DMEM medium containing 10% FBS and 1% penicillin-streptomycin in a 37 °C incubator with 5% CO2. The cells were seeded in 100-mm tissue culture dishes to be used for subsequent experiments.
# B16F10 cells (1 × 10^5/well) were seeded in 6 well plates for 24 h. The cells were then incubated in the presence of 100 nM α-MSH, and treated with various concentrations (25, 50, and 100 μM) of sample for 72 h. After being washed twice with PBS, the cells were dissolved of 1 N NaOH and 10% DMSO, incubated at 60 °C for 1 h, and mixed to solubilize the melanin. Relative melanin content was determined with an ELISA reader by absorbance at 405 nm.
# [2] = target: T1, PPE (porcine pancreas elastase) (Sus scrofa, UniProt P00772); assay: Elastase inhibition assay; format: biochemical
# T1 construct: from tissue; host or cells: porcine pancreas
# Experimental: The reaction was carried out in a 50 mM Tris-HCl buffer (pH 8.5) containing 1 mg/mL N-succinyl-(Ala)3-p-nitroanilide and 0.6 U/mL PPE (porcine pancreas elastase). The test sample was added to the reaction mixture, and elastase inhibition was incubated at 25 °C for 10 min. The change in absorbance was measured at 405 nm using an ELISA reader. Ursolic acid was used as a positive control. The inhibitory activity of the sample was expressed as the concentration that inhibits 50% of the enzyme activity (IC50).
# [3] = target: mushroom tyrosinase; assay: Tyrosinase inhibition assay; format: biochemical; conditions: L-tyrosine, 37 °C 20 min, three experiments, read-out: Tyrosinase inhibitory activity IC50
# Experimental: The reaction was carried out in a 0.1 M potassium phosphate buffer (pH 6.5) containing 1.5 mM L-tyrosine and 1250 unit/mL mushroom tyrosinase and the reaction mixture was incubated at 37 °C for 20 min. The test samples were assayed for tyrosinase inhibition by measuring its effect on tyrosinase activity using an ELISA reader at 490 nm. Arbutin was used as a positive control. The inhibitory activity of the sample was expressed as the concentration that inhibits 50% of the enzyme activity (IC50).
# [4] = test system: B16F10 mouse melanoma cells; assay: Measurement of relative melanin contents in α-MSH-stimulated cells; format: cell-based
# [5] = at a concentration of 100 μM, read-out: inhibition of melanogenesis
# [6] = porcine pancreas elastase, N-succinyl-(Ala)3-p-nitroanilide, 25 °C 10 min, three experiments, read-out: Elastase inhibitory activity IC50
# [7] = in the range of 50 ~ 100 μM, α-MSH-stimulated, read-out: inhibition percentage of melanin production
# T1 sequence (P00772 27-266): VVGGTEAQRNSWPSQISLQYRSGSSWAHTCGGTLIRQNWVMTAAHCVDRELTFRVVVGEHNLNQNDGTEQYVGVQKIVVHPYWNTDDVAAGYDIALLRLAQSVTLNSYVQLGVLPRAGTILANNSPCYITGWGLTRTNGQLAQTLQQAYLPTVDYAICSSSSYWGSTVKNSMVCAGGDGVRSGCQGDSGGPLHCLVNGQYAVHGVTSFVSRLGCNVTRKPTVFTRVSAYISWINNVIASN
IC50 [3],"IC50 [2, 6]",Structure (SMILES),activity at 25 µM [1],activity at 50 µM [1],activity at 100 µM [1],"inhibition at 100 µM [1, 5]",IC50 [2],effect on melanin content compared to arbutin ([1]; α-MSH-stimulated),"inhibition at 100 µM [1, 7]","activity at 400 µM ([4]; B16-F10, 100 nM α-MSH, 72 h)","inhibition at 400 µM ([4]; B16-F10, α-MSH-stimulated, read-out: inhibition rate of melanin production)"
–,96.9 ± 1.33 µM,"C[C@H]1[C@H](C)CC[C@]2(C(=O)O)CC[C@]3(C)C(=CC[C@@H]4[C@@]5(C)CC[C@H](O)C(C)(C)[C@@H]5CC[C@]43C)[C@H]12 [Ursolic acid, reference compound]",–,–,–,–,–,–,–,–,–
19.8 ± 0.77 µM,> 1000 µM,"Oc1ccc(/C=C/c2cc(O)cc(O)c2)cc1 [Compound 4, Resveratrol]",82.3 ± 1.18%,27.3 ± 5.83%,17.3 ± 0.01%,70.4 to 91%,–,greatly decreased,72.7 to 82.7%,–,–
37.9 ± 1.04 µM,292 ± 14.4 µM,"O=c1cc(-c2ccc(O)c(O)c2)oc2cc(O)cc(O)c12 [Compound 5, Luteolin]",18 ± 0.76%,16.4 ± 1.65%,8.99 ± 0.73%,70.4 to 91%,–,greatly decreased,83.5 to 91%,–,–
> 100 µM,> 1000 µM,"O=c1cc(-c2ccc(O)cc2)oc2cc(O)cc(O)c12 [Compound 6, Apigenin]",83.6 ± 3.01%,63.2 ± 2.11%,16.2 ± 1.52%,70.4 to 91%,–,–,–,–,–

# Further lines, the molecule ahead of its results:
Structure (SMILES),IC50 [3],"IC50 [2, 6]",activity at 25 µM [1],activity at 50 µM [1],activity at 100 µM [1],"inhibition at 100 µM [1, 5]",IC50 [2],effect on melanin content compared to arbutin ([1]; α-MSH-stimulated),"inhibition at 100 µM [1, 7]","activity at 400 µM ([4]; B16-F10, 100 nM α-MSH, 72 h)","inhibition at 400 µM ([4]; B16-F10, α-MSH-stimulated, read-out: inhibition rate of melanin production)"
"Oc1cc(O)cc(/C=C/c2ccc(O)cc2O)c1 [Compound 3, Oxyresveratrol]",6.42 ± 0.45 µM,–,118 ± 3.73%,109 ± 1.96%,29.6 ± 2.21%,70.4 to 91%,> 1000 µM,–,–,–,–
"COc1cc(C(=O)O)ccc1O [Compound 1, Vanillic acid]",–,> 1000 µM,91.3 ± 4.81%,74.78 ± 0.69%,64 ± 1.45%,–,–,–,–,–,–
"COc1cc(-c2cc(=O)c3c(O)cc(O)cc3o2)ccc1O [Compound 8, Chrysoeriol]",–,–,37 ± 4.57%,27.3 ± 0.8%,23.4 ± 2.19%,70.4 to 91%,–,greatly decreased,72.6 to 76.6%,–,–
"COc1cc(-c2cc(=O)c3c(O)cc(O)cc3o2)cc(OC)c1O [Compound 7, Tricin]",> 100 µM,> 1000 µM,65.2 ± 1.18%,65.4 ± 1.41%,56.4 ± 0.89%,–,–,–,–,–,–
OC[C@H]1O[C@@H](Oc2ccc(O)cc2)[C@H](O)[C@@H](O)[C@@H]1O [Arbutin],474 ± 18.2 µM,–,–,–,–,–,–,–,–,30.7 ± 3.34%,69.2%
"OC[C@H]1O[C@@H](Oc2cc(O)cc(/C=C/c3ccc(O)cc3)c2)[C@H](O)[C@@H](O)[C@@H]1O [Compound 2, trans-Piceid]",51.2 ± 5.5 µM,> 1000 µM,136 ± 3.36%,132 ± 6.52%,116 ± 6.39%,–,–,–,–,–,–
